# Laboratory results as given in US11739068B2, “Polymorphs of N-[(3-fluoro-4-methoxypyridin-2-yl)methyl]-3-(methoxymethyl)-1-({4-[(2-oxopyridin-1-yl)methyl]phenyl}methyl)pyrazole-4-carboxamide and salts thereof” (KALVISTA PHARMACEUTICALS LIMITED, priority 2016, dated 2023).
# What was measured:
# Type in all cases: physicochemical
# Slurry studies = settings: 72 hrs; for XRPD of solid after slurry versus starting form: 90/10 IPA/water, ambient temperature
# Experimental: Form 1 (20 mg) was suspended in 90/10 IPA/water (200 μL or […]) and shaken at ambient temperature for 72 hrs. The supernatant was evaporated rather than filtered due to the small volume and the resulting solid was examined by XRPD (FIG. 6).
# The supernatant was evaporated rather than filtered due to the small volume and the resulting solid was examined by XRPD (FIG. 28).
# The supernatant was evaporated rather than filtered due to the small volume and the resulting solid was examined by XRPD (FIG. 34).
# The supernatant was evaporated rather than filtered due to the small volume and the resulting solid was examined by XRPD (FIG. 40).
# [1] = Visual aqueous solubility
# Experimental: Form 1 (10 mg) was weighed into a glass vial and water was added in 100 μL portions up to 3 mL then 1 mL portions thereafter. Solubility was assessed visually following a brief period of equilibration.
# Form 18 (10 mg) was weighed into a glass vial and water was added in 100 μL portions up to 3 mL then 1 mL portions thereafter. Solubility was assessed visually following a brief period of equilibration.
# Form 8 (10 mg) was weighed into a glass vial and water was added in 100 μL portions up to 3 mL then 1 mL portions thereafter. Solubility was assessed visually following a brief period of equilibration.
# Form 15 (10 mg) was weighed into a glass vial and water was added in 100 μL portions up to 3 mL then 1 mL portions thereafter. Solubility was assessed visually following a brief period of equilibration.
# Form 16 (10 mg) was weighed into a glass vial and water was added in 100 μL portions up to 3 mL then 1 mL portions thereafter. Solubility was assessed visually following a brief period of equilibration.
# [2] = Gravimetric Vapour Sorption (GVS)
# Experimental: Gravimetric Vapour Sorption (GVS) data were collected using the following method: Approximately 10 mg of sample was placed into a wire-mesh vapour sorption balance pan and loaded into an ‘IgaSorp’ vapour sorption balance (Hiden Analytical Instruments). The sample was then dried by maintaining a 0% humidity environment until no further weight change was recorded. Subsequently, the sample was then subjected to a ramping profile from 0-90% RH at 10% RH increments, maintaining the sample at each step until equilibration had been attained (99% step completion). Upon reaching equilibration, the % RH within the apparatus was ramped to the next step and the equilibration procedure repeated. After completion of the sorption cycle, the sample was then dried using the same procedure. The weight change during the sorption/desorption cycles were then monitored, allowing for the hygroscopic nature of the sample to be determined.
Compound,XRPD of solid after slurry versus starting form (Slurry studies),"%-Wt (dry basis) ([2]; adsorption, about 0 %-RH)","%-Wt (dry basis) ([2]; adsorption, about 10 %-RH)","%-Wt (dry basis) ([2]; adsorption, about 20 %-RH)","%-Wt (dry basis) ([2]; adsorption, about 30 %-RH)","%-Wt (dry basis) ([2]; adsorption, about 40 %-RH)","%-Wt (dry basis) ([2]; adsorption, about 50 %-RH)","%-Wt (dry basis) ([2]; adsorption, about 60 %-RH)","%-Wt (dry basis) ([2]; adsorption, about 70 %-RH)","%-Wt (dry basis) ([2]; adsorption, about 80 %-RH)","%-Wt (dry basis) ([2]; adsorption, about 90 %-RH)","%-Wt (dry basis) ([2]; desorption, about 0 %-RH)","%-Wt (dry basis) ([2]; desorption, about 5 %-RH)","%-Wt (dry basis) ([2]; desorption, about 15 %-RH)","%-Wt (dry basis) ([2]; desorption, about 25 %-RH)","%-Wt (dry basis) ([2]; desorption, about 35 %-RH)","%-Wt (dry basis) ([2]; desorption, about 45 %-RH)","%-Wt (dry basis) ([2]; desorption, about 55 %-RH)","%-Wt (dry basis) ([2]; desorption, about 65 %-RH)","%-Wt (dry basis) ([2]; desorption, about 75 %-RH)",further results
"COCc1nn(Cc2ccc(Cn3ccccc3=O)cc2)cc1C(=O)NCc1nccc(OC)c1F.O=S(=O)(O)O [Form 8, N-[(3-fluoro-4-methoxypyridin-2-yl)methyl]-3-(methoxymethyl)-1-({4-[(2-oxopyridin-1-yl)methyl]phenyl}methyl)pyrazole-4-carboxamide sulfate]",no change in the X-ray pattern,0.03946%,0.4404%,0.6163%,0.7771%,0.6383%,0.8735%,1.214%,2.0577%,3.99%,14.16%,0.000552%,0.07837%,0.2289%,0.3947%,0.2459%,0.5639%,0.9496%,1.643%,3.436%,"Aqueous solubility (in words) [1]: excellent aqueous solubility; solubility ([1]; water, thermodynamic from solid): ~100 mg/mL; %-Wt (dry basis) ([2]; desorption, about 85 %-RH): 6.295%; Increase in water content by GVS (hygroscopicity, in words) ([2]; up to 70% relative humidity): only a relatively gradual increase in water content"
"COCc1nn(Cc2ccc(Cn3ccccc3=O)cc2)cc1C(=O)NCc1nccc(OC)c1F.Cl [Form 18, N-[(3-fluoro-4-methoxypyridin-2-yl)methyl]-3-(methoxymethyl)-1-({4-[(2-oxopyridin-1-yl)methyl]phenyl}methyl)pyrazole-4-carboxamide hydrochloride]",different to that of Form 18,0.000338%,0.2364%,0.3723%,0.5037%,0.6618%,0.9246%,9.109%,9.603%,13.9262%,66.83%,0.35%,2.227%,3.448%,4.993%,7.125%,9.624%,12.7659%,17.34%,24.5%,"%-Wt (dry basis) ([2]; desorption, about 85 %-RH): 40.16%"
N-[(3-fluoro-4-methoxypyridin-2-yl)methyl]-3-(methoxymethyl)-1-({4-[(2-oxopyridin-1-yl)methyl]phenyl}methyl)pyrazole-4-carboxamide edisylate [Form 15],no differences in X-ray pattern,,,,,,,,,,,,,,,,,,,,"Result of water slurry (Slurry studies; 20 mg in deionised water (200 μL)): complete dissolution of the sample; Aqueous solubility ([1]; water, assessed visually): ~100 mg/mL; Aqueous solubility, repeat using less water ([1]; water, dissolved in 0.05 mL): > 200 mg/mL"
N-[(3-fluoro-4-methoxypyridin-2-yl)methyl]-3-(methoxymethyl)-1-({4-[(2-oxopyridin-1-yl)methyl]phenyl}methyl)pyrazole-4-carboxamide edisylate [Form 16],,1.612%,2.367%,2.626%,2.834%,3.045%,3.351%,7.516%,9.935%,15.98%,94.26%,0.00047%,2.866%,4.495%,6.541%,9.564%,12.94%,17.21%,23.22%,33.16%,"%-Wt (dry basis) ([2]; desorption, about 85 %-RH): 57.4%"
